Reference: patent publication US10294290B2, “Polypeptides derived from calcitonin receptors and methods of use” (The Research Foundation For The State University of New York, priority 2010, dated 2019)
[ ]: non-standard residue; d: D form. pGlu = O=C1CC[C@@H](C(=O)O)N1

Tests used:
[1] = test system: immortalized human fetal osteoblast cell line, hFOB 1.19; assay: Bone matrix formation, Alizarin Red staining, differentiated osteoblasts; assay type: cell-based; conditions: for calcium deposits (Alizarin dye, fluorescent images): 12.5 μM
Protocol: The effect of CRP on differentiated osteoblasts was analyzed in an immortalized human fetal osteoblast cell line, hFOB 1.19. hFOB cells were incubated for 48 hours in increasing concentrations of CRP (4.6 μM, 9.2 μM, 13.8 μM and 18.4 μM). Bone matrix formation was assayed using a Millipore Osteogenesis Quantitation kit as described above. Phase contrast and fluorescent images of the Alizarin Red stained cells were acquired using an Olympus-IMT microscope according to the manufacturer's (Millipore) specifications. […] Increased bone matrix deposition was also detectable by fluorescence microscopy. Non-amidated CRP had no effect on bone matrix formation.
The sequence specificity of the effect of CRP on bone matrix formation was evaluated using the scrambled peptide, {pGln}NFWQWWIQARKQ (SEQ ID NO:51), which was amidated at the C-terminus. hFOB cells were treated as described above with 18.4 μM of the scrambled peptide, and bone matrix formation was assayed with the Millipore Osteogenesis Quantitation kit as described above.
In cell culture, we also studied the effect of amino acid substitutions in CRP on the formation of bone matrix. hFOB cells were treated with human CRP (KRQWAQFKIQWNQR; SEQ ID NO:42) and, separately, mouse CRP (KRQWTQFKIQWSQR; SEQ ID NO:43) before staining with Alizarin dye to identify the matrix that is formed. Fluorescent images were acquired using an Olympus-IMP microsope.

[2] = test system: ovariectomized (OVX) rats; assay: Micro-CT of cortical bone from femoral midshafts; assay type: in vivo, Sprague Dawley rats; conditions: 15 μM (1 mL) intraperitoneal, five times per week for five weeks, vs vehicle, p<0.05 ANCOVA
Protocol: We performed a micro-CT analysis of cortical bone from the femoral midshafts of ovariectomized (OVX) rats treated with 50% DMSO (OVX Vehicle) or 15 μM rat CRP (OVX 15 μM) Sprague Dawley rats (n=12/group) were ovariectomized at 6 months of age and allowed to lose bone for one month prior to treatment. They were then administered vehicle or 15 μM CRP (1 mL), via intraperitoneal injection, five times per week for five weeks. The animals were then sacrificed and their femora were harvested. The femora were scanned using microCT (Scanco uCT40) and 1.8 mm-long mid-diaphyseal regions of interest were analyzed.

KRQWAQFKIQWNQR (listed as Homo sapiens) [hCRP]
calcium deposits (Alizarin dye, fluorescent images) [1]: produced calcium deposits

KRQWTQFKIQWSQR (listed as Mus sp.) [mCRP]
calcium deposits (Alizarin dye, fluorescent images) [1]: produced calcium deposits

rat CRP: rat calcitonin receptor-derived polypeptide (rat homologue, SEQ ID NO:47, shown in FIG. 2) (KRQWAQFKIQWSHRWGRR; listed as Rattus norvegicus)
average periosteal surface [2]: significantly greater | average periosteal volume [2]: significantly greater | average polar moment of inertia [2]: significantly greater | maximum principal moment of inertia [2]: significantly greater | minimum principal moment of inertia [2]: significantly greater

{pGln}NFWQWWIQARKQ ([pGlu]NFWQWWIQARKQ-NH2; SMILES CC[C@H](C)[C@H](NC(=O)[C@H](Cc1c[nH]c2ccccc12)NC(=O)[C@H](Cc1c[nH]c2ccccc12)NC(=O)[C@H](CCC(N)=O)NC(=O)[C@H](Cc1c[nH]c2ccccc12)NC(=O)[C@H](Cc1ccccc1)NC(=O)[C@H](CC(N)=O)NC(=O)[C@@H]1CCC(=O)N1)C(=O)N[C@@H](CCC(N)=O)C(=O)N[C@@H](C)C(=O)N[C@@H](CCCNC(=N)N)C(=O)N[C@@H](CCCCN)C(=O)N[C@@H](CCC(N)=O)C(N)=O) [scrambled peptide, scrambled control peptide, same amino acids as CRP in scrambled order, reference compound]
bone matrix formation ([1]; 18.4 μM): did not induce bone matrix formation
